Assay [1] concerns IRF pathway, THP1-Dual™ cells. In words: STING reporter assay in THP1-Dual cells, IRF pathway (Lucia luciferase, QUANTI-Luc). The format is cell-based, human. As to conditions: read-out: IRF (EC50 μM). An outline of the steps: (§1)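 Activation normalised between DMSO-only baseline and 100 μM cGAMP maximum, after 20 h compound exposure (starting at 100 μM final) at 37° C, 5% CO2. Supernatant SEAP (QUANTI-Blue, OD620) reports NF-κB; secreted luciferase (QUANTI-Luc, RLU at 5 min) reports IRF.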
In general terms: A reporter such as luciferase makes a cellular process visible.

Assay [2] relates to NF-κB pathway, THP1-Dual™ cells. In words: STING reporter assay in THP1-Dual cells, NF-κB pathway (SEAP, QUANTI-Blue). As to conditions: read-out: NFkB (EC50 μM). Type of assay: cell-based, human. An outline of the steps: as §1
Setting [3] is: THP1-Dual cells, 10% human plasma, 20 hours, Lucia luciferase, 100% activation = 100 μM cGAMP.
Where [4] appears, read: THP1-Dual cells, 10% human plasma, 20 hours, SEAP, 100% activation = 100 μM cGAMP.
Where [5] appears, read: Homo sapiens, THP1-Dual, 20 h, THP1-Dual cells, 10% human plasma, 20 hours, Lucia luciferase, 100% activation = 100 μM cGAMP.
The mark [6] stands for this setting: Homo sapiens, THP1-Dual, 20 h, THP1-Dual cells, 10% human plasma, 20 hours, SEAP, 100% activation = 100 μM cGAMP.

Where two headings read alike, the source gives them in different places.

The text below walks through data of patent publication US12673954B2 (BRISTOL-MYERS SQUIBB COMPANY, priority 2021, dated 2026).

In general, EC50 refers to the concentration giving half of the maximal effect. In the case of `O=C(OC1CC(c2ccc(F)cc2)C1)c1cc(Cl)cc2cc(CNC(=O)c3cnn4cccnc34)oc12` (single isomer, unassigned) [EXAMPLE 334, 3-(4-Fluorophenyl)cyclobutyl 5-chloro-2-((pyrazolo[1,5-a]pyrimidine-3-carboxamido)methyl)benzofuran-7-carboxylate], the results for the EC50 in assay [1] (setting [3]) and in assay [2] (setting [4]) were 16 µM and 23 µM, respectively.

For the molecule `O=C(OCC(F)(F)C(F)(F)C(F)(F)CO)c1cc(Cl)cc2cc(CNC(=O)c3cnn4cccnc34)oc12` [EXAMPLE 253, 2,2,3,3,4,4-Hexafluoro-5-hydroxypentyl 5-chloro-2-((pyrazolo[1,5-a]pyrimidine-3-carboxamido)methyl)benzofuran-7-carboxylate], the EC50 in assay [1] (Homo sapiens, THP1-Dual, 20 h) turned out to be 0.96 µM; in assay [2] (Homo sapiens, THP1-Dual, 20 h), 0.93 µM.

Take `COC(=O)c1cc(C)cc2cc(Cn3ccc4ccncc4c3=O)oc12` [Example 85, Methyl 5-methyl-2-((1-oxo-2,7-naphthyridin-2(1H)-yl)methyl)benzofuran-7-carboxylate]: the EC50 stood at 3.5 µM in assay [1] (setting [5]) and 3.6 µM in assay [2] (setting [6]).

With `COC(=O)c1cc(O)cc2cc(CN3CCc4ccncc4C3=O)oc12` [EXAMPLE 103, Methyl 5-hydroxy-2-((1-oxo-3,4-dihydro-2,7-naphthyridin-2(1H)-yl)methyl)benzofuran-7-carboxylate], the EC50 in assay [1] (setting [5]) was 25 µM; in assay [2] (setting [6]) it was 23 µM.

With `COC(OC(=O)c1cc(C(F)(F)F)cc2cc(CNC(=O)c3cnn4cccnc34)oc12)C(F)(F)F` (single isomer, unassigned) [EXAMPLE 351, 2,2,2-Trifluoro-1-methoxyethyl 2-((pyrazolo[1,5-a]pyrimidine-3-carboxamido)methyl)-5-(trifluoromethyl)benzofuran-7-carboxylate], the EC50 stood at 1.9 µM in assay [1] (setting [5]) and 2.4 µM in assay [2] (setting [6]).

As to `CCOC(OC(=O)c1cc(F)cc2cc(CNC(=O)c3cnn4cccnc34)oc12)C(F)F` (single isomer, unassigned) [EXAMPLE 324, 1-Ethoxy-2,2-difluoroethyl 5-fluoro-2-((pyrazolo[1,5-a]pyrimidine-3-carboxamido)methyl)benzofuran-7-carboxylate], the EC50 was 1.5 µM in assay [1] (setting [3]) and 1.7 µM in assay [2] (setting [4]).

Regarding `Cc1cc(C(=O)O)c2oc(CNC(=O)c3cnn4cccnc34)cc2c1` [EXAMPLE 158, 5-methyl-2-((pyrazolo[1,5-a]pyrimidine-3-carboxamido)methyl)benzofuran-7-carboxylic acid], the concentration giving a half-maximal response (EC50) in assay [1] (setting [5]) was 63 µM; in assay [2] (setting [6]), 52 µM.

For `COC(=O)c1cccc2cc(CNC(=O)c3cnccn3)oc12` [EXAMPLE 8, Methyl 2-((pyrazine-2-carboxamido)methyl)benzofuran-7-carboxylate], the EC50 in assay [1] (setting [5]) was 21 µM; in assay [2] (setting [6]), 18 µM.

For `O=C(OC(CF)CF)c1cc(F)cc2cc(CNC(=O)c3cnn4cccnc34)oc12` [EXAMPLE 237, 1,3-Difluoropropan-2-yl 5-fluoro-2-((pyrazolo[1,5-a]pyrimidine-3-carboxamido)methyl)benzofuran-7-carboxylate], the EC50 in assay [1] (setting [5]) and in assay [2] (setting [6]) was 1.2 µM in each case.

In the case of `COC(=O)c1cc(F)cc2cc([C@H](C)NC(=O)c3cnn4cccnc34)oc12` [EXAMPLE 46, Methyl (S)-5-fluoro-2-(1-(pyrazolo[1,5-a]pyrimidine-3-carboxamido)ethyl)benzofuran-7-carboxylate], the EC50 in assay [1] (setting [5]) and in assay [2] (setting [6]) was 1.5 µM each time.

On to `CC(OC(=O)c1ccc(F)c2cc(CNC(=O)c3cnn4cccnc34)oc12)C(F)(F)F` (single isomer, unassigned) [EXAMPLE 309, 1,1,1-Trifluoropropan-2-yl 4-fluoro-2-((pyrazolo[1,5-a]pyrimidine-3-carboxamido)methyl)benzofuran-7-carboxylate], for which the concentration giving a half-maximal response (EC50) in assay [1] (setting [3]) was 6.1 µM; in assay [2] (setting [4]), 7.2 µM.

For the molecule `COC(OC(=O)c1cc(Br)cc2cc(CNC(=O)c3cnn4cccnc34)oc12)C(F)(F)F` (single isomer, unassigned) [EXAMPLE 340, 2,2,2-Trifluoro-1-methoxyethyl 5-bromo-2-((pyrazolo[1,5-a]pyrimidine-3-carboxamido)methyl)benzofuran-7-carboxylate], the results for the 50% effective concentration (EC50) in assay [1] (setting [3]) and in assay [2] (setting [4]) were 0.91 µM and 0.92 µM, respectively.

Take `COC(=O)c1cc(C)cc2cc(C(C)NC(=O)c3cnn4cccnc34)oc12` (racemic) [Example 96, Methyl 5-methyl-2-(1-(pyrazolo[1,5-a]pyrimidine-3-carboxamido)ethyl)benzofuran-7-carboxylate (racemic)]: the results for the half-maximal effective concentration (EC50) in assay [1] (setting [5]) and in assay [2] (setting [6]) were 1.7 µM and 2 µM, respectively.

In the case of `COC(=O)c1cc(C)cc2c(Br)c(CNC(=O)c3cnn4cccnc34)oc12` [EXAMPLE 121, Methyl 3-bromo-5-methyl-2-((pyrazolo[1,5-a]pyrimidine-3-carboxamido)methyl)benzofuran-7-carboxylate], the results for the half-maximal effective concentration (EC50) in assay [1] (setting [5]) and in assay [2] (setting [6]) were 0.4 µM and 0.28 µM, respectively.

`COC(OC(=O)c1cc(Br)cc2cc(CNC(=O)c3cnn4cccnc34)oc12)C(F)(F)F` (single isomer, unassigned) [EXAMPLE 339, 2,2,2-Trifluoro-1-methoxyethyl 5-bromo-2-((pyrazolo[1,5-a]pyrimidine-3-carboxamido)methyl)benzofuran-7-carboxylate]: the values for the EC50 in assay [1] (setting [5]) and in assay [2] (setting [6]) were 1.8 µM and 1.4 µM, respectively.

`COC(=O)c1cc(C#N)cc2cc(CNC(=O)c3cnn4cccnc34)oc12` [EXAMPLE 105, Methyl 5-cyano-2-((pyrazolo[1,5-a]pyrimidine-3-carboxamido)methyl)benzofuran-7-carboxylate]: the figures for the EC50 in assay [1] (setting [5]) and in assay [2] (setting [6]) were 4.7 µM and 3.4 µM, respectively.

Regarding `CSC(=O)c1cc(F)cc2cc(CNC(=O)c3cnc4cccnn34)oc12` [EXAMPLE 383, S-Methyl 5-fluoro-2-((imidazo[1,2-b]pyridazine-3-carboxamido)methyl)benzofuran-7-carbothioate], the figures for the EC50 in assay [1] (setting [5]) and in assay [2] (setting [6]) were 0.92 µM and 1.1 µM, respectively.

As to `O=C(NCc1cc2cc(F)cc(C(=O)OCC(F)(F)F)c2o1)c1cnccn1` [EXAMPLE 229, 2,2,2-Trifluoroethyl 5-fluoro-2-((pyrazine-2-carboxamido)methyl)benzofuran-7-carboxylate], the EC50 in assay [1] (setting [5]) and in assay [2] (setting [6]) was 4.2 µM each time.

Turning to `COC(=O)c1cccc2cc(Cn3ccc4[nH]ncc4c3=O)oc12` [EXAMPLE 19, Methyl 2-({4-oxo-1H,4H,5H-pyrazolo[4,3-c]pyridin-5-yl}methyl)-1-benzofuran-7-carboxylate], the EC50 in assay [1] (setting [5]) came out at 47 µM; in assay [2] (setting [6]) it was 95 µM.

Take `COC(=O)c1cc(F)cc2c(Cl)c([C@H](C)NC(=O)c3cnn4cccnc34)oc12` [EXAMPLE 111, Methyl (S)-3-chloro-5-fluoro-2-(1-(pyrazolo[1,5-a]pyrimidine-3-carboxamido)ethyl)benzofuran-7-carboxylate]: the values for the EC50 in assay [1] (setting [5]) and in assay [2] (setting [6]) were 1.2 µM and 1.4 µM, respectively.

`Cc1cnc2c(C(=O)NCc3cc4cccc(C(=O)OCC(F)(F)F)c4o3)cnn2c1` [EXAMPLE 220, 2,2,2-Trifluoroethyl 2-((6-methylpyrazolo[1,5-a]pyrimidine-3-carboxamido)methyl)benzofuran-7-carboxylate]: the EC50 in assay [1] (setting [5]) came to 3.8 µM; in assay [2] (setting [6]), 4.8 µM.

As to `COC(=O)c1cc(Cl)cc2cc(CNC(=O)c3cncn(C)c3=O)oc12` [Example 65, Methyl 5-chloro-2-((1-methyl-6-oxo-1,6-dihydropyrimidine-5-carboxamido)methyl)benzofuran-7-carboxylate], the concentration for a half-maximal effect (EC50) is 3 µM in assay [1] (setting [5]) and 3.1 µM in assay [2] (setting [6]).

As for `O=C(NCc1cc2cccc(C(=O)OCC(F)(F)F)c2o1)c1cnccn1` [EXAMPLE 216, 2,2,2-Trifluoroethyl 2-((pyrazine-2-carboxamido)methyl)benzofuran-7-carboxylate], the EC50 in assay [1] (setting [5]) was determined as 12 µM; in assay [2] (setting [6]) it was 17 µM.

Regarding `COc1cc(C(=O)OC(C)C(F)(F)F)c2oc(CNC(=O)c3cnn4cccnc34)cc2c1` (single isomer, unassigned) [EXAMPLE 345, 1,1,1-Trifluoropropan-2-yl 5-methoxy-2-((pyrazolo[1,5-a]pyrimidine-3-carboxamido)methyl)benzofuran-7-carboxylate], the results for the half-maximal effective concentration (EC50) in assay [1] (setting [5]) and in assay [2] (setting [6]) were 5.7 µM and 3.6 µM, respectively.

`O=C(OCCCN1CCOCC1)c1cc(Cl)cc2cc(CNC(=O)c3cnn4cccnc34)oc12` [EXAMPLE 256, 3-Morpholinopropyl 5-chloro-2-((pyrazolo[1,5-a]pyrimidine-3-carboxamido)methyl)benzofuran-7-carboxylate]: the concentration giving a half-maximal response (EC50) is 6.7 µM in assay [1] (setting [5]) and 4.8 µM in assay [2] (setting [6]).

Consider `COC(=O)c1cccc2cc(CNC(=O)c3cnn4c(C)ccnc34)oc12` [EXAMPLE 12, Methyl 2-((7-methylpyrazolo[1,5-a]pyrimidine-3-carboxamido)methyl) benzofuran-7-carboxylate], for which the 50% effective concentration (EC50) in assay [1] (setting [3]) turned out to be 33 µM; in assay [2] (setting [4]), 39 µM.

Consider `CSC(=O)c1cc(F)cc2cc([C@H](C)NC(=O)c3cnn4cccnc34)oc12` [EXAMPLE 399, S-Methyl (S)-5-fluoro-2-(1-(pyrazolo[1,5-a]pyrimidine-3-carboxamido)ethyl)benzofuran-7-carbothioate], for which the figures for the EC50 in assay [1] (setting [5]) and in assay [2] (setting [6]) were 1.3 µM and 1.5 µM, respectively.
